From PubChem BioAssay AID602161 (Broad Institute, 2011)
Inconclusive results are not listed.

Target: Heat shock protein HSP 90-alpha (Homo sapiens) (UniProt P07900)
Experiment: HsHsp90-dependent glucocorticoid receptor activity inhibition – S. cerevisiae, beta-galactosidase luminescence, dry powder, selectivity assay for Plasmodium Hsp90 inhibitor project, dose response (AID 602161)
Conditions: S. cerevisiae HsHsp90 GR reporter, beta-gal luminescence

`O=S(=O)(/C=C/c1ccccc1)NC1CCCCCCC1` was tested, and the AC50 was 9.6 µM.

With `CCOc1cc(S(=O)(=O)NC2CCCCCC2)ccc1F` the AC50 was 22.2 µM.

With `O=C(CSCC(=O)N1CCCCC1)Nc1nc(-c2ccc(Cl)s2)cs1` the AC50 was 9.72 µM.

`Cc1ccc(OCc2n[nH]c(=S)n2C2CCCCC2)cc1` was tested, and the AC50 was 12.6 µM.

`COc1ccc2c(c1)C=C(C(=O)NCc1ccc(Cl)cc1)CO2` showed an AC50 of 9.79 µM.

Work on `O=S(=O)(NC1CCCCCC1)c1ccc(Br)s1` yielded an AC50 of 2.6 µM.
